Data as given in patent publication US20110224245A1, “Treatment Of Neurological Disorders Using Huperzine” (President and Fellows of Harvard College, priority 2008, published 2011).
“Also recorded” adds a separate entry of the source.

Assays:
[1] = Solubility in methyl cellulose solvent; assay type: physicochemical
Source text: (§1) Huperzine A was either administered in a soluble form (SOL) or as a suspension (SUS). […] To produce the suspension, huperzine A was ground to a powder using a mortar and pestle, and the powder mixed with methyl cellulose. This mixture was then sonicated to produce a suspension that was subsequently administered to mice in the weight range of 19.0 to 25.5 g. The data are presented as the number of mice showing an effect (N) from the full number of mice (F) tested. […] At four hours post administration, all three mice were protected (i.e., 100% were protected).

mice [2] = assay: Toxicity Model (TOX), rotorod / minimal motor impairment, mice i.p.; assay type: in vivo; conditions: for Comment (6 Hz test, 22 mA) / Comment (6 Hz test, 32 mA): 1 h
Source text: To investigate the neurotoxicity levels of the huperzine compounds, the Toxicity Model (TOX) using a rotorod is employed. The animals (e.g., mice) were trained to stand on an accelerating rotorod rotating at 10 rev min^−1 with a diameter of 3.2 cm. The trained animal can be given the huperzine compound at various doses and the effect of huperzine on their motor skills can be determined. The dose at which the animals fell off the rotorod is the toxic dose.
The neurotoxicity of huperzine was tested in the rotorod test. The mice were trained to stand on an accelerating rotorod rotating at 10 rev min^−1 with a diameter of 3.2 cm. The trained animals were given the huperzine at various doses and the effect of huperzine on their motor skills was determined. The dose at which the animals fell off the rotorod was the toxic dose.
as §1, with “protected). […]” for “protected).”
(§2) Minimal toxicity was identified in mice by the rotorod procedure.

rats = assay: Toxicity (TOX) / minimal motor impairment, rats, oral; assay type: in vivo
mice [3] = assay: Toxicity / minimal motor impairment after ICV administration (6 Hz screen); assay type: in vivo; conditions: for Toxic (animals toxic over number tested): 0.5 h
Source text: Doses listed as pmol/5 microliter injection volume for ICV. TD50 at 0.5 hrs: 36.15 (9.35-121.74) 1.57+/−0.51.
as §2

[4] = test system: formalin-induced paw-licking; assay: Formalin test (paw licking) in mice; assay type: in vivo
Procedure: The formalin test for antinociceptive activity is described in numerous publications, e.g., Hunskaar, S., O. B. Fasmer, and K. Hole, J. Neurosci. […] The formalin test is accepted as an art recognized model of persistent clinical pain.
Male Swiss Webster NIH mice (20-30 g; Harlan, San Diego, Calif.) were used in the experiments described herein. Food was withdrawn on the day of experiment. Mice were placed in Plexiglass jars for at least 1 hour to accommodate to the environment. Following the accommodation period, mice were weighed and given either a huperzine compound administered intraperitoneal (i.p.) or oral (p.o.), or the appropriate volume of vehicle (10% Tween-80). Fifteen minutes after the i.p. dosing, and 30 minutes after the p.o. dosing mice were injected with formalin (20 μL of 5% formaldehyde solution in saline) into the dorsal surface of the right hind paw. Mice were transferred to the Plexiglass jars and monitored for the amount of time spent licking or biting the injected paw. Periods of licking and biting were recorded in 5 minute intervals for 40 minutes after the formalin injection. All experiments were done in a blinded manner. The early phase (acute) of the formalin response is measured as licking/biting between 0-5 minutes, and the late phase (inflammatory) is measured from 10-40 minutes. Differences between vehicle and drug treated groups are analyzed by one-way analysis of variance (ANOVA). A P value<0.05 is considered significant.
Fifteen minutes after the i.p. dosing, mice were injected with formalin (20 μL of 5% formaldehyde solution in saline) into the dorsal surface of the right hind paw. Periods of licking and biting were recorded in 5 minute intervals for 40 minutes after the formalin injection as shown below in Tables 1 and 2. All experiments were done according to the art-recognized Anticonvulsant Screening Program of the NINDS at the University of Utah.
Duration of paw licking in the tables below is expressed in seconds.

C/C=C1\[C@H]2C=C(C)C[C@]1(N)c1ccc(=O)[nH]c1C2 [Huperzine A]
solubility in the methyl cellulose solvent ([1]; at concentrations of 0.1-0.3 mg/kg): readily soluble | solubility in the methyl cellulose solvent ([1]; at higher concentrations (administered as suspension)): not soluble | TOX N/F (mice showing an effect / mice tested) (mice [2]; 0.1 mg/kg i.p., SOL, 4.0 h): 0/4 | Comment (6 Hz test, 22 mA) (mice [2]; 0.18 mg/kg IP): Minimal motor impairment | Comment (6 Hz test, 32 mA) (mice [2]; 0.2 mg/kg IP): Tremors | Comment (6 Hz test, 32 mA) (mice [2]; 0.3 mg/kg IP): Tremors; also recorded: Minimal motor impairment | TOX N/F (mice showing an effect / mice tested) (mice [2]; 0.3 mg/kg i.p., SOL, 4.0 h): 0/4 | Comment (6 Hz test, 22 mA) (mice [2]; 0.35 mg/kg IP): Minimal motor impairment | Comment (6 Hz test, 32 mA) (mice [2]; 0.42 mg/kg IP): Tremors; also recorded: Minimal motor impairment | Comment (6 Hz test, 22 mA) (mice [2]; 0.7 mg/kg IP): Tremors; also recorded: Minimal motor impairment | Comment (6 Hz test, 32 mA) (mice [2]; 0.83 mg/kg IP): Tremors; also recorded: Minimal motor impairment | TOX N/F (mice showing an effect / mice tested) (mice [2]; 1 mg/kg i.p., SOL, 0.5 h, (T) animals displaying tremors): 4/4 (T)^2 | TOX N/F (mice showing an effect / mice tested) (mice [2]; 1 mg/kg i.p., SOL, 4.0 h, (T) animals displaying tremors): 2/2 (T) | TOX N/F (mice showing an effect / mice tested) (mice [2]; 3 mg/kg i.p., SUS, 0.5 h): 8/8 | TOX N/F (mice showing an effect / mice tested) (mice [2]; 3 mg/kg i.p., SUS, 4.0 h, (T) animals displaying tremors): 4/4 (T) | TOX N/F (mice showing an effect / mice tested) (mice [2]; 10 mg/kg i.p., SUS, 0.5 h): 4/4 | TOX N/F (mice showing an effect / mice tested) (mice [2]; 10 mg/kg i.p., SUS, 4.0 h, (T) animals displaying tremors): 2/2 (T) | TOX N/F (mice showing an effect / mice tested) (mice [2]; 30 mg/kg i.p., SUS, 0.5 h, (D) death of animals): 4/4 (D)^3 | TOX N/F (mice showing an effect / mice tested) (mice [2]; 100 mg/kg i.p., SUS, 0.5 h, (D) death of animals): 8/8 (D) | TOX N/F (mice showing an effect / mice tested) (mice [2]; 300 mg/kg i.p., SUS, 0.5 h, (D) death of animals): 4/4 (D) | behavioral impairment at anticonvulsant doses (mice [2]; mice): marked motor impairment | behavioral impairment at anticonvulsant doses (rats): marked motor impairment | toxicity (rats; 1 mg/kg oral): no toxicity | body temperature (mice [3]): Dose-dependent drop in body temperatures | Toxic (animals toxic over number tested) (mice [3]; dose 0.01 (pmol/5 microliter; head mg/kg)): 0/8 Toxic | Toxic (animals toxic over number tested) (mice [3]; dose 1 (pmol/5 microliter; head mg/kg)): 0/8 Toxic | Toxic (animals toxic over number tested) (mice [3]; dose 10 (pmol/5 microliter; head mg/kg)): 2/8 toxic | Toxic (animals toxic over number tested) (mice [3]; dose 100 (pmol/5 microliter; head mg/kg)): 6/8 Toxic | Toxic (animals toxic over number tested) (mice [3]; dose 1000 (pmol/5 microliter; head mg/kg)): 4/4 toxic | TD50 (mice [3]; 0.5 hrs, (95% interval in brackets)): 36.15 (9.35-121.74) pmol/5 microliter injection volume | Response comment (mice [3]; dose 10, 0.25 h): Minimal motor impairment | Response comment (mice [3]; dose 10, 0.5 h): Minimal motor impairment | Response comment (mice [3]; dose 100, 0.25 h): Minimal motor impairment | Response comment (mice [3]; dose 100, 0.5 h): Minimal motor impairment | Response comment (mice [3]; dose 100, 1 h): Minimal motor impairment | Area Under the Curve, % of Control ([4]; 0.5 mg/kg i.p., Acute phase): 2.8% | Area Under the Curve, % of Control ([4]; 0.5 mg/kg i.p., Inflammatory phase): 0.0% | inhibition of phase 1 (acute) pain response ([4]; 1 mg/kg i.p.): complete inhibition | inhibition of phase 2 (inflammatory) pain response ([4]; 1 mg/kg i.p.): complete inhibition | Area Under the Curve, % of Control ([4]; 1 mg/kg i.p., Acute phase): 0.0% | Area Under the Curve, % of Control ([4]; 1 mg/kg i.p., Inflammatory phase): 0.0%
